Laboratory results as given in ChEMBL document CHEMBL3045835, “Comparative study of conventional and microwave-assisted synthesis of some Schiff bases and their potential as antimicrobial agents” (2012).
In brackets after ≈: the same amount, converted by molar mass.

Tests used:
Format in all cases: functional
Bacillus pumilus [1] = experiment: Antibacterial activity against Bacillus pumilus MTCC 1456 at 100 ug/ml after 18 hr by cup-plate method; settings: MTCC 1456, 18 h, read-out: DIZ
Pseudomonas fluorescens [2] = experiment: Antibacterial activity against Pseudomonas fluorescens MTCC 2421 after 24 hr by broth dilution method; settings: MTCC 2421, 24 h
Bacillus subtilis [3] = experiment: Antibacterial activity against Bacillus subtilis MTCC 441 at 200 ug/ml after 18 hr by cup plate method; settings: MTCC 441, 18 h, read-out: DIZ
Aspergillus niger [4] = experiment: Antifungal activity against Aspergillus niger MTCC 2546 after 24 hr by broth dilution method; settings: MTCC 2546, 24 h
Penicillium chrysogenum [5] = experiment: Antifungal activity against Penicillium chrysogenum MTCC 161 after 24 hr by broth dilution method; settings: MTCC 161, 24 h
Staphylococcus aureus = experiment: Antibacterial activity against Staphylococcus aureus MTCC 1430 at 100 ug/ml after 18 hr by cup-plate method; settings: MTCC 1430, 18 h, read-out: DIZ
Pseudomonas aeruginosa [6] = experiment: Antibacterial activity against Pseudomonas aeruginosa MTCC 424 at 200 ug/ml after 18 hr by cup-plate method; settings: MTCC 424, 18 h, read-out: DIZ
Micrococcus luteus = experiment: Antibacterial activity against Micrococcus luteus MTCC 1538 at 1000 ug/ml after 18 hr by cup-plate method; settings: MTCC 1538, 18 h, read-out: DIZ
Pseudomonas fluorescens [7] = experiment: Antibacterial activity against Pseudomonas fluorescens MTCC 2421 at 1000 ug/ml after 18 hr by cup-plate method; settings: MTCC 2421, 18 h, read-out: DIZ
Bacillus pumilus [8] = experiment: Antibacterial activity against Bacillus pumilus MTCC 1456 at 200 ug/ml after 18 hr by cup-plate method; settings: MTCC 1456, 18 h, read-out: DIZ
Bacillus subtilis [9] = experiment: Antibacterial activity against Bacillus subtilis MTCC 441 after 24 hr by broth dilution method; settings: MTCC 441, 24 h
Pseudomonas aeruginosa [10] = experiment: Antibacterial activity against Pseudomonas aeruginosa MTCC 424 at 1500 ug/ml after 18 hr by cup-plate method; settings: MTCC 424, 18 h, read-out: DIZ
Aspergillus niger [11] = experiment: Antifungal activity against Aspergillus niger MTCC 2546 at 500 ug/ml after 18 hr by cup-plate method; settings: MTCC 2546, 18 h, read-out: DIZ
Escherichia coli [12] = experiment: Antibacterial activity against Escherichia coli MTCC 1573 at 1000 ug/ml after 18 hr by cup-plate method; settings: MTCC 1573, 18 h, read-out: DIZ
Bacillus subtilis [13] = experiment: Antibacterial activity against Bacillus subtilis MTCC 441 at 100 ug/ml after 18 hr by cup plate method; settings: MTCC 441, 18 h, read-out: DIZ
Aspergillus niger [14] = experiment: Antifungal activity against Aspergillus niger MTCC 2546 at 1500 ug/ml after 18 hr by cup-plate method; settings: MTCC 2546, 18 h, read-out: DIZ
Bacillus pumilus [15] = experiment: Antibacterial activity against Bacillus pumilus MTCC 1456 after 24 hr by broth dilution method; settings: MTCC 1456, 24 h
Aspergillus niger [16] = experiment: Antifungal activity against Aspergillus niger MTCC 2546 at 1000 ug/ml after 18 hr by cup-plate method; settings: MTCC 2546, 18 h, read-out: DIZ
Pseudomonas fluorescens [17] = experiment: Antibacterial activity against Pseudomonas fluorescens MTCC 2421 at 500 ug/ml after 18 hr by cup-plate method; settings: MTCC 2421, 18 h, read-out: DIZ
Escherichia coli [18] = experiment: Antibacterial activity against Escherichia coli MTCC 1573 at 100 ug/ml after 18 hr by cup-plate method; settings: MTCC 1573, 18 h, read-out: DIZ
Pseudomonas fluorescens [19] = experiment: Antibacterial activity against Pseudomonas fluorescens MTCC 2421 at 200 ug/ml after 18 hr by cup-plate method; settings: MTCC 2421, 18 h, read-out: DIZ
Pseudomonas aeruginosa [20] = experiment: Antibacterial activity against Pseudomonas aeruginosa MTCC 424 at 1000 ug/ml after 18 hr by cup-plate method; settings: MTCC 424, 18 h, read-out: DIZ
Penicillium chrysogenum [21] = experiment: Antifungal activity against Penicillium chrysogenum MTCC 161 at 1500 ug/ml after 18 hr by cup-plate method; settings: MTCC 161, 18 h, read-out: DIZ
Penicillium chrysogenum [22] = experiment: Antifungal activity against Penicillium chrysogenum MTCC 161 at 100 ug/ml after 18 hr by cup-plate method; settings: MTCC 161, 18 h, read-out: DIZ
Escherichia coli [23] = experiment: Antibacterial activity against Escherichia coli MTCC 1573 after 24 hr by broth dilution method; settings: MTCC 1573, 24 h
Pseudomonas aeruginosa [24] = experiment: Antibacterial activity against Pseudomonas aeruginosa MTCC 424 at 500 ug/ml after 18 hr by cup-plate method; settings: MTCC 424, 18 h, read-out: DIZ
Bacillus pumilus [25] = experiment: Antibacterial activity against Bacillus pumilus MTCC 1456 at 1500 ug/ml after 18 hr by cup-plate method; settings: MTCC 1456, 18 h, read-out: DIZ

MIC (Pseudomonas fluorescens [2]): 300 µg/mL (≈ 1350 µM)
MIC (Aspergillus niger [4]): 400 µg/mL (≈ 1800 µM)
MIC (Penicillium chrysogenum [5]): 300 µg/mL (≈ 1350 µM)
MIC (Bacillus subtilis [9]): 400 µg/mL (≈ 1800 µM)
MIC (Bacillus pumilus [15]): 200 µg/mL (≈ 902 µM)
MIC (Escherichia coli [23]): 200 µg/mL (≈ 902 µM)
Structure (SMILES): Clc1ccc(/N=C/c2cccs2)cc1
zone of inhibition at 100 µg/mL (Bacillus pumilus [1]): 13 mm
zone of inhibition at 200 µg/mL (Bacillus subtilis [3]): 12 mm
zone of inhibition at 100 µg/mL (Staphylococcus aureus): 12 mm
zone of inhibition at 200 µg/mL (Pseudomonas aeruginosa [6]): 13 mm
zone of inhibition at 1000 µg/mL (Micrococcus luteus): 20 mm
zone of inhibition at 1000 µg/mL (Pseudomonas fluorescens [7]): 18 mm
zone of inhibition at 200 µg/mL (Bacillus pumilus [8]): 15 mm
zone of inhibition at 1500 µg/mL (Pseudomonas aeruginosa [10]): 19 mm
zone of inhibition at 500 µg/mL (Aspergillus niger [11]): 12 mm
zone of inhibition at 1000 µg/mL (Escherichia coli [12]): 19 mm
zone of inhibition at 100 µg/mL (Bacillus subtilis [13]): 11 mm
zone of inhibition at 1500 µg/mL (Aspergillus niger [14]): 18 mm
zone of inhibition at 1000 µg/mL (Aspergillus niger [16]): 17 mm
zone of inhibition at 500 µg/mL (Pseudomonas fluorescens [17]): 16 mm
zone of inhibition at 100 µg/mL (Escherichia coli [18]): 13 mm
zone of inhibition at 200 µg/mL (Pseudomonas fluorescens [19]): 13 mm
zone of inhibition at 1000 µg/mL (Pseudomonas aeruginosa [20]): 17 mm
zone of inhibition at 1500 µg/mL (Penicillium chrysogenum [21]): 19 mm
zone of inhibition at 100 µg/mL (Penicillium chrysogenum [22]): 13 mm
zone of inhibition at 500 µg/mL (Pseudomonas aeruginosa [24]): 16 mm
zone of inhibition at 1500 µg/mL (Bacillus pumilus [25]): 20 mm
